Reference: patent publication US20140323478A1, “SERINE/THREONINE KINASE INHIBITORS” (Afraxis Holdings, Inc., priority 2013, published 2014)

Biological target: T1, human recombinant PAK1-KD protein (Homo sapiens, UniProt Q13153)
T1 construct: made in house; host or cells: Tini [sic] cells infected with recombinant baculovirus
Test: PAK1-KD (kinase domain) IC50 Zlyte assay
Assay type: biochemical
Conditions: Z'-LYTE FRET peptide substrate (Ser/Thr19), 60-minute incubation at 22° C.
Text: Determination of the activity of PAK activity of a compound of formula I was accomplished using the PAK1 inhibition assay in Biological Example 1.
PAK1-KD (Kinase Domain) IC50 Zlyte Assay Protocol
Activity of human recombinant PAK1-KD protein may be assessed in vitro by assay of the phosphorylation of a FRET peptide substrate. Catalytically active human recombinant PAK1-KD protein is obtained by purification from Tini cells infected with a human PAK1-KD recombinant baculovirus expression vector.
The activity/inhibition of PAK1-KD was estimated by measuring the phosphorylation of a FRET peptide substrate (Ser/Thr19) labeled with Coumarin and Fluorescein using Z′-LYTE™ assay (Invitrogen). The peptide substrate is a consensus sequence (KKRNRRLSVA) based on various PAK substrates reported in the scientific literature. The 10 μL assay mixtures contained 50 mM HEPES (pH 7.5), 0.01% Brij-35, 10 mM MgCl2, 1 mM EGTA, 2 μM FRET peptide substrate, and 20 pM PAK1-KD. Incubations were carried out at 22° C. in black polypropylene 384-well plates (Corning Costar). […] Following the 60-minute incubation, the assay mixtures were quenched by the addition of 5 μL of Z′-LYTE™ development reagent, and 1 hour later the emissions of coumarin (445 nm) and fluorescein (520 nm) were determined after excitation at 400 nm using an Envision plate reader (Perkin Elmer). An emission ratio (445 nm/520 nm) was determined to quantify the degree of substrate phosphorylation.

T1 sequence (Q13153 270-521 limits assumed): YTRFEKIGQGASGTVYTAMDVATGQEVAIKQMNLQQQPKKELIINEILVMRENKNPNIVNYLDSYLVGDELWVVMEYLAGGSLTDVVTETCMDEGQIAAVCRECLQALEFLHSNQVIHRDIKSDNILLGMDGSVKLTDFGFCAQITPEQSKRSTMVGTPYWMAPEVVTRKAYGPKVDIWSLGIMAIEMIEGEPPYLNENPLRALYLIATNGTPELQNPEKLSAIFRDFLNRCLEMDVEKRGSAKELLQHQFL

Q: How did the IC50 turn out when `CCn1c(=O)c(-c2ccccc2S(C)(=O)=O)cc2cnc(NCCC3CCN(C)CC3)nc21` [Compound I-1, 8-Ethyl-2-((2-(1-methylpiperidin-4-yl)ethyl)amino)-6-(2-(methylsulfonyl)phenyl)pyrido[2,3-d]pyrimidin-7(8H)-one] was run?
A: > 4.5 µM

Q: How did the IC50 turn out when `CCN1CCC(CCNc2ncc3cc(-c4cccc(S(C)(=O)=O)c4)c(=O)n(CC)c3n2)CC1` [Compound I-2, 8-ethyl-2-[2-(1-ethyl-4-piperidyl)ethylamino]-6-(3-methylsulfonylphenyl)pyrido[2,3-d]pyrimidin-7-one] was run?
A: 1.7 µM

Q: With `CCNc1ncc2cc(-c3cccc(S(C)(=O)=O)c3)c(=O)n(CC)c2n1` [Compound I-3, 8-Ethyl-2-(ethylamino)-6-(3-methylsulfonylphenyl)pyrido[2,3-d]pyrimidin-7-one] as the compound, how does the IC50 read?
A: > 4.5 µM

Q: How did the IC50 turn out when `CCn1c(=O)c(-c2cccc(S(C)(=O)=O)c2)cc2cnc(NCCC3CCN(C)CC3)nc21` [Compound I-4, 8-ethyl-2-[2-(1-methyl-4-piperidyl)ethylamino]-6-(3-methylsulfonylphenyl)pyrido[2,3-d]pyrimidin-7-one] was run?
A: 1.4 µM

Q: Which IC50 does the source give for `CCN1CCC(CCNc2ncc3cc(-c4ccccc4S(C)(=O)=O)c(=O)n(CC)c3n2)CC1` [Compound I-5, 8-ethyl-2-[2-(1-ethyl-4-piperidyl)ethylamino]-6-(2-methylsulfonylphenyl)pyrido[2,3-d]pyrimidin-7-one] here?
A: > 4.5 µM

Q: Which IC50 does the source give for `CCN1CCC(CCNc2ncc3cc(-c4ccc(S(C)(=O)=O)cc4)c(=O)n(CC)c3n2)CC1` [Compound I-6, 8-ethyl-2-[2-(1-ethyl-4-piperidyl)ethylamino]-6-(4-methylsulfonylphenyl)pyrido[2,3-d]pyrimidin-7-one] here?
A: > 4.5 µM

Q: For `CCn1c(=O)c(-c2ccc(S(C)(=O)=O)cc2)cc2cnc(NCCC3CCN(C)CC3)nc21` [Compound I-7, 8-ethyl-2-[2-(1-methyl-4-piperidyl)ethylamino]-6-(4-methylsulfonylphenyl)pyrido[2,3-d]pyrimidin-7-one], which IC50 is on record?
A: > 4.5 µM

Q: With `CCn1c(=O)c(-c2ccc([S+](C)[O-])cc2)cc2cnc(NCCC3CCN(C)CC3)nc21` (centres unmarked) [Compound I-8, 8-ethyl-2-[2-(1-methyl-4-piperidyl)ethylamino]-6-(4-methylsulfinylphenyl)pyrido[2,3-d]pyrimidin-7-one] as the compound, how does the IC50 read?
A: > 4.5 µM

Q: How did the IC50 turn out when `CCn1c(=O)c(-c2ccc(S(=O)(=O)C3CC3)cc2)cc2cnc(NCCC3CCN(C)CC3)nc21` [Compound I-9, 6-(4-cyclopropylsulfonylphenyl)-8-ethyl-2-[2-(1-methyl-4-piperidyl)ethylamino]pyrido[2,3-d]pyrimidin-7-one] was run?
A: 3 µM

Q: With `CCn1c(=O)c(-c2ccc(S(C)(=O)=O)cc2)cc2cnc(N[C@H]3[C@@H]4CNC[C@@H]43)nc21` [Compound I-10, 2-[[(1R,5S)-3-azabicyclo[3.1.0]hexan-6-yl]amino]-8-ethyl-6-(4-methylsulfonylphenyl)pyrido[2,3-d]pyrimidin-7-one] as the compound, how does the IC50 read?
A: > 4.5 µM

Q: With `CCn1c(=O)c(-c2ccc(S(C)(=O)=O)nc2)cc2cnc(NCCC3CCN(C)CC3)nc21` [Compound I-11, 8-ethyl-2-[2-(1-methyl-4-piperidyl)ethylamino]-6-(6-methylsulfonyl-3-pyridyl)pyrido[2,3-d]pyrimidin-7-one] as the compound, how does the IC50 read?
A: 3.5 µM

Q: Which IC50 does the source give for `CCn1c(=O)c(-c2ccc([S+]([O-])C3CC3)cc2)cc2cnc(NCCC3CCN(C)CC3)nc21` (centres unmarked) [Compound I-12, 6-(4-cyclopropylsulfinylphenyl)-8-ethyl-2-[2-(1-methyl-4-piperidyl)ethylamino]pyrido[2,3-d]pyrimidin-7-one] here?
A: 0.874 µM

Q: How did the IC50 turn out when `CCn1c(=O)c(-c2ccc(S(=O)(=O)C3CC3)cc2Cl)cc2cnc(NCCC3CCN(C)CC3)nc21` [Compound I-13, 6-(2-chloro-4-cyclopropylsulfonyl-phenyl)-8-ethyl-2-[2-(1-methyl-4-piperidyl)ethylamino]pyrido[2,3-d]pyrimidin-7-one] was run?
A: 0.0683 µM

Q: With `CCNc1ncc2cc(-c3ccc(S(C)(=O)=O)cc3Cl)c(=O)n(C[C@H]3CC[C@H](N)CC3)c2n1` [Compound I-14, 8-(((1R,4R)-4-aminocyclohexyl)methyl)-6-(2-chloro-4-(methylsulfonyl)phenyl)-2-(ethylamino)pyrido[2,3-d]pyrimidin-7(8H)-one] as the compound, how does the IC50 read?
A: 0.175 µM
